Laboratory results published in patent publication US11236087B2, “Highly active pyrazolo-piperidine substituted indole-2-carboxamides active against the hepatitis B virus (HBV)” (AiCuris GmbH & Co. KG, priority 2017, dated 2022).
pEC50, pIC50: −log10 of the molar value.

Key:
[1] = Cell viability assay (AlamarBlue) in HepAD38 cells; settings: human
HBV = assay: Determination of HBV DNA from the supernatants of HepAD38 cells (anti-HBV activity); assay type: cell-based, hepatitis B virus; settings: Hepatitis B virus, 144 h; HBV DNA in HepAD38 supernatant, day 6, qPCR; read-out: Cell Activity (EC50)
Summary of the method: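 HepAD38 cells, tetracycline withdrawn to induce HBV, treated with serial half-log compound dilutions; on day 6 HBV DNA purified from filtered supernatant and quantified by real-time PCR against HBV plasmid standards; EC50 from relative copy numbers by non-linear regression, three experiments in triplicate.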

HBV core protein = target: T1, HBV core protein (UniProt P03146); assay: Biochemical capsid assembly assay (fluorescence quenching); parameters: species or system hepatitis B virus; settings: read-out: Assembly Activity (IC50); BODIPY-FL labelled core protein, 300 μM NaCl, read 6 min after start
T1 construct: fused on or other part: BODIPY-FL maleimide label on the C-terminal Cys150
Summary of the method: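 Purified E. coli-expressed HBV core protein (aa 1-149 plus Cys150), BODIPY-FL maleimide-labelled, at 1.0-2.0 μM in 50 mM HEPES pH 7.5 with 0.5% DMSO was used. Compounds were tested at 8 concentrations (0.5-log dilutions from 100, 31.6 or 10 μM). Assembly was started with NaCl ([…]), and fluorescence quenching was read after 6 min (ex 477/em 525 nm). EC50 was determined by non-linear regression.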

T1 sequence (P03146 whole entry, looked up, the tested form may be a part): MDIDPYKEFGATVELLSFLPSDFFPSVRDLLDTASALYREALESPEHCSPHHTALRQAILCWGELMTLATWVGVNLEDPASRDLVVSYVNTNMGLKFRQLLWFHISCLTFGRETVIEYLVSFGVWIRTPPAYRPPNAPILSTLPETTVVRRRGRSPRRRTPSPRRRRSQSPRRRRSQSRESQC

Compound | CC50 at 6 days [1] [µM] | pEC50 (HBV) | pIC50 (HBV core protein)
O=C(c1cc2ccccc2[nH]1)N1CCc2[nH]nc(C(=O)N3C[C@@H]4[C@@H](CO)[C@@H]4C3)c2C1 [Example 175, [(±)-3-[5-(1H-indole-2-carbonyl)-1H,4H,5H,6H,7H-pyrazolo[4,3-c]pyridine-3-carbonyl]-3-azabicyclo[3.1.0]hexan-6-yl]methanol] | > 10 | 4.60 to 6.00 | 5.00 to 5.30
O=C(c1cc2ccccc2[nH]1)N1CCc2[nH]nc(C(=O)N3C[C@@H]4[C@@H](O)[C@@H]4C3)c2C1 [Example 176, (±)-3-[5-(1H-indole-2-carbonyl)-1H,4H,5H,6H,7H-pyrazolo[4,3-c]pyridine-3-carbonyl]-3-azabicyclo[3.1.0]hexan-6-ol] | > 10 | 4.60 to 6.00 | 5.00 to 5.30
CN(Cc1ccccc1)C(=O)c1n[nH]c2c1CN(C(=O)c1cc3ccccc3[nH]1)CC2 [Example 178, N-benzyl-5-(1H-indole-2-carbonyl)-N-methyl-1H4H,5H,6H,7H-pyrazolo[4,3-c]pyridine-3-carboxamide] | > 10 | > 6.00 | > 5.30
O=C(c1cc2ccccc2[nH]1)N1CCc2[nH]nc(C(=O)N3CCC[C@H]3CO)c2C1 [Example 180, [(2S)-1-[5-(1H-indole-2-carbonyl)-1H,4H,5H,6H,7H-pyrazolo[4,3-c]pyridine-3-carbonyl]pyrrolidin-2-yl]methanol] | > 10 | 4.60 to 6.00 | > 4.00
O=C(c1cc2ccccc2[nH]1)N1CCc2[nH]nc(C(=O)N3Cc4cn[nH]c4C3)c2C1 [Example 181, 2-(3-{1H,4H,5H,6H-pyrrolo[3,4-c]pyrazole-5-carbonyl}-1H,4H,5H,6H,7H-pyrazolo[4,3-c]pyridine-5-carbonyl)-1H-indole] | > 10 | 4.60 to 6.00 | 5.00 to 5.30
O=C(c1cc2ccccc2[nH]1)N1CCc2[nH]nc(C(=O)N3CCCC34CC4)c2C1 [Example 184, 2-(3-{4-azaspiro[2.4]heptane-4-carbonyl}-1H,4H,5H,6H,7H-pyrazolo[4,3-c]pyridine-5-carbonyl)-1H-indole] | > 10 | > 6.00 | > 5.30
CCN(C(=O)c1n[nH]c2c1CN(C(=O)c1cc3ccccc3[nH]1)CC2)C1COC1 [Example 185, N-ethyl-5-(1H-indole-2-carbonyl)-N-(oxetan-3-yl)-1H,4H,5H,6H,7H-pyrazolo[4,3-c]pyridine-3-carboxamide] | > 10 | > 6.00 | 5.00 to 5.30
CN(C(=O)c1n[nH]c2c1CN(C(=O)c1cc3ccccc3[nH]1)CC2)C1COC1 [Example 188, 5-(1H-indole-2-carbonyl)-N-methyl-N-(oxetan-3-yl)-1H,4H,5H,6H,7H-pyrazolo[4,3-c]pyridine-3-carboxamide] | > 10 | > 6.00 | 5.00 to 5.30
CN(C(=O)c1n[nH]c2c1CN(C(=O)c1cc3ccccc3[nH]1)CC2)C1CCOC1 (stereo not drawn) [Example 189, 5-(1H-indole-2-carbonyl)-N-methyl-N-(oxolan-3-yl)-1H4H,5H,6H,7H-pyrazolo[4,3-c]pyridine-3-carboxamide] | > 10 | 4.60 to 6.00 | > 4.00
O=C(c1cc2ccccc2[nH]1)N1CCc2[nH]nc(C(=O)N3CCC(F)(F)CC3)c2C1 [Example 190, 2-[3-(4,4-difluoropiperidine-1-carbonyl)-1H,4H,5H,6H,7H-pyrazolo[4,3-c]pyridine-5-carbonyl]-1H-indole] | > 10 | > 6.00 | > 5.30
CC(C)(C)OC(=O)N[C@@H]1CCN(C(=O)c2n[nH]c3c2CN(C(=O)c2cc4ccccc4[nH]2)CC3)C1 [Example 191, tert-butyl N-[(3R)-1-[5-(1H-indole-2-carbonyl)-1H,4H,5H,6H,7H-pyrazolo[4,3-c]pyridine-3-carbonyl]pyrrolidin-3-yl]carbamate] | > 10 | 4.60 to 6.00 | > 5.30
